Read-outs that look alike come from different tables or passages of the source.
System: 407 cancer cell lines
Assay: Cell viability of cancer cell lines (IC50), CellTiter-Glo Viability Assay, 96 h
Format: cell-based
Conditions: for IC50: read-out: Absolute IC50
Method: Viability was determined by using the 50% inhibitory concentration (IC50) as determined with the CellTiter-Glo® Viability Assay (Promega).
Experiments were initiated by first thawing and equilibrating the CellTiter-Glo® Buffer to room temperature. The lyophilized CellTiter-Glo® Substrate was also equilibrated to room temperature. The lyophilized substrate was reconstituted with the CellTiter-Glo® buffer to form the CellTiter-Glo® Reagent.
Cells were harvested during the logarithmic growth period, counted, and the cell concentration adjusted to 4.44×10^4 cells/mL using culture medium.
Cells were allowed to grow overnight and the following day, the TO reading was obtained by adding 10 μL culture medium to each well of Plate A. The plate was allowed to equilibrate at room temperature for thirty minutes, after which 50 μL CellTiter-Glo® reagent was added to each well. The contents were mixed for 5 min on an orbital shaker to induce cell lysis. Plates were incubated for 20 minutes to stabilize the luminescent signal and the TO luminescence recorded.
Test plate B was incubated for 96 h in the humidified incubator at 37° C. with 5% CO2.
Following the incubation, the plate was equilibrated at room temperature for thirty minutes. CellTiter-Glo® (50 μL) was added to each well of the plate and contents mixed for five minutes on an orbital shaker to induce cell lysis. The luminescent signal was allowed to stabilize at room temperature for 20 minutes and the luminescence recorded.
IC50 (EC50) was calculated using a dose-response curve, fitted using a nonlinear regression model with a sigmoidal dose response. Survival rate was calculated using the formula:
The Surviving rate (%)=(LumTest article−LumMedium control)/(LumNon-treated−LumMedium control)×100%.
Absolute IC50 (EC50) was calculated according to the dose-response curve generated by the statistical software (GraphPad Prism 5.0).

N.N.[Cl][Pt][Cl] [Cisplatin, reference compound]
IC50 (22Rv1 cells, 96 h): 3050 nM | IC50 (769-P cells, 96 h): 970 nM | IC50 (786-O cells, 96 h): 1430 nM | IC50 (8505C): 2010 nM | IC50 (A3/KAW cells, 96 h): 930 nM | IC50 (A253 cells, 96 h): 1240 nM | IC50 (A498 cells, 96 h): 4280 nM | IC50 (A549 cells, 96 h): 4350 nM | IC50 (A875 cells, 96 h): 1860 nM | IC50 (A2058, 96 h): 770 nM | IC50 (A2780 cells, 96 h): 1380 nM | IC50 (A2780cis cells, 96 h): 5550 nM | IC50 (A-172 cells, 96 h): 8580 nM | IC50 (A-204 cells, 96 h): 1050 nM | IC50 (A-375, 96 h): 1040 nM | IC50 (A-427 cells, 96 h): 5780 nM | IC50 (A-431, 96 h): 2070 nM | IC50 (A-673 cells, 96 h): 260 nM | IC50 (ACHN cells, 96 h): 1740 nM | IC50 (AGS cells, 96 h): 4990 nM | IC50 (AMO-1 cells, 96 h): 1920 nM | IC50 (AN3 CA, 96 h): 3000 nM | IC50 (ASH-3 cells, 96 h): 2720 nM | % inhibition at top conc. (AsPC-1 cells, 96 h): 78.18% | IC50 (AsPC-1 cells, 96 h): 4940 nM | IC50 (BT474 cells, 96 h): 59000 nM | IC50 (BT-20 cells, 96 h): 2150 nM | % inhibition at top conc. (BT-483): 75.40% | IC50 (BT-483): 48200 nM | IC50 (BT-549 cells, 96 h): 4700 nM | IC50 (BxPC-3): 1270 nM | IC50 (C4-2, 96 h): 14900 nM | % inhibition at top conc. (C666-1 cells, 96 h): 73.03% | IC50 (C666-1 cells, 96 h): 18100 nM | IC50 (C-33 A cells, 96 h): 920 nM | IC50 (CADO-ES1): 1030 nM | IC50 (CAL-27 cells, 96 h): 890 nM | IC50 (CAL-120): 7910 nM | IC50 (CAMA-1, 96 h): 9440 nM | IC50 (CCK-81 cells, 96 h): 4510 nM | IC50 (CCRF-CEM): 550 nM | IC50 (CFPAC-1): 4130 nM | IC50 (COLO 205, 96 h): 1970 nM | IC50 (COLO 320DM, 96 h): 3180 nM | IC50 (COV644 cells, 96 h): 14200 nM | IC50 (Ca Ski cells, 96 h): 6440 nM | IC50 (Caki-2): 3350 nM | IC50 (Calu-1): 4770 nM | % inhibition at top conc. (Calu-3, 96 h): 77.35% | IC50 (Calu-3, 96 h): 350 nM | IC50 (Calu-6): 710 nM | IC50 (Caov-3 cells, 96 h): 3610 nM | IC50 (Capan-1): 680 nM | IC50 (Capan-2): 21900 nM | IC50 (CoC1/DDP cells, 96 h): 5780 nM | IC50 (CoC1 cells, 96 h): 3240 nM | IC50 (DLD-1): 2430 nM | IC50 (DMS 53 cells, 96 h): 2850 nM | IC50 (DMS 79): 810 nM | IC50 (DMS 114 cells, 96 h): 2020 nM | IC50 (DOHH-2 cells, 96 h): 190 nM | IC50 (DU 145, 96 h): 1150 nM | IC50 (DU4475): 1350 nM | IC50 (DV-90 cells, 96 h): 3250 nM | IC50 (Daoy cells, 96 h): 390 nM | IC50 (Daudi cells, 96 h): 210 nM | IC50 (Detroit 562 cells, 96 h): 1350 nM | IC50 (DoTc2 4510 cells, 96 h): 2840 nM | IC50 (EBC-1, 96 h): 4610 nM | IC50 (EFM-192A, 96 h): 11300 nM | IC50 (EJM cells, 96 h): 6740 nM | IC50 (EOL-1): 460 nM | IC50 (ES-2 cells, 96 h): 3510 nM | IC50 (FTC-133): 980 nM | IC50 (G-292 clone A141B1 cells, 96 h): 1110 nM | IC50 (GTL-16 cells, 96 h): 1090 nM | IC50 (H4 cells, 96 h): 2260 nM | IC50 (HBL-1): 1210 nM | IC50 (HCC38): 2860 nM | IC50 (HCC 94 cells, 96 h): 1980 nM | IC50 (HCC827 cells, 96 h): 8580 nM | IC50 (HCC1187 cells, 96 h): 2010 nM | IC50 (HCC1428): 34900 nM | IC50 (HCC1500): 7640 nM | IC50 (HCC1569): 5780 nM | IC50 (HCC1806 cells, 96 h): 2230 nM | IC50 (HCC1937): 5070 nM | IC50 (HCC1954): 7180 nM | IC50 (HCC2218, 96 h): 10800 nM | IC50 (HCC2935): 51700 nM | IC50 (HCC4006, 96 h): 5760 nM | IC50 (HCC-78 cells, 96 h): 2250 nM | IC50 (HCCC-9810): 2960 nM | % inhibition at top conc. (HCCLM3 cells, 96 h): 60.88% | IC50 (HCCLM3 cells, 96 h): 10800 nM | IC50 (HCT-8): 9040 nM | IC50 (HCT-15): 3260 nM | IC50 (HCT-116): 4030 nM | % inhibition at top conc. (HEC-1-A cells, 96 h): 83.97% | IC50 (HEC-1-A cells, 96 h): 13300 nM | IC50 (HEC-1-B cells, 96 h): 10600 nM | IC50 (HEL 92.1.7): 480 nM | IC50 (HGC-27 cells, 96 h): 770 nM | IC50 (HL-60): 1150 nM | IC50 (HLE cells, 96 h): 2480 nM | IC50 (HM-7, 96 h): 6260 nM | IC50 (HPAC): 14300 nM | IC50 (HT-3 cells, 96 h): 4850 nM | IC50 (HT-29): 2890 nM | IC50 (HT-55): 17700 nM | IC50 (HT-1080, 96 h): 3530 nM | IC50 (HT-1376): 3280 nM | IC50 (HeLa 229 cells, 96 h): 7250 nM | IC50 (HeLa cells, 96 h): 280 nM | IC50 (Hep3B): 3080 nM | IC50 (Hep G2/C3A, 96 h): 1840 nM | IC50 (Hep G2): 4510 nM | IC50 (HuCCT1, 96 h): 10000 nM | IC50 (HuT 78): 500 nM | IC50 (IHH-4 cells, 96 h): 2650 nM | IC50 (IM95m cells, 96 h): 8430 nM | IC50 (IMR-32 cells, 96 h): 60 nM | IC50 (Ishikawa, 96 h): 2750 nM | IC50 (J82 cells, 96 h): 310 nM | IC50 (JAR): 610 nM | IC50 (JEG-3 cells, 96 h): 520 nM | IC50 (JHH-1 cells, 96 h): 6040 nM | IC50 (JHH-4 cells, 96 h): 1070 nM | IC50 (JHH-5 cells, 96 h): 850 nM | IC50 (JHH-7 cells, 96 h): 1830 nM | IC50 (JIMT-1 cells, 96 h): 6960 nM | IC50 (JJN-3 cells, 96 h): 4080 nM | IC50 (JVM-2): 1460 nM | IC50 (JVM-3): 1120 nM | IC50 (JVM-13): 540 nM | IC50 (JeKo-1 cells, 96 h): 1360 nM | IC50 (Jurkat clone E6-1): 470 nM | IC50 (K-562): 5730 nM | IC50 (KARPAS-299 cells, 96 h): 890 nM | IC50 (KARPAS-422): 1110 nM | % inhibition at top conc. (KATO III, 96 h): 67.05% | IC50 (KATO III, 96 h): 10500 nM | IC50 (KG-1): 2020 nM | IC50 (KHOS/NP cells, 96 h): 1330 nM | IC50 (KMH-2 cells, 96 h): 2650 nM | IC50 (KMS-11): 2160 nM | IC50 (KP4 cells, 96 h): 6250 nM | IC50 (KPL-4): 1370 nM | IC50 (KYSE-70): 6110 nM | IC50 (KYSE-150): 1790 nM | IC50 (KYSE-270): 2150 nM | IC50 (KYSE-410 cells, 96 h): 13400 nM | IC50 (Kasumi-1): 2920 nM | IC50 (L-82): 1160 nM | IC50 (L-363): 1830 nM | IC50 (LN-18 cells, 96 h): 700 nM | IC50 (LN-229 cells, 96 h): 7680 nM | IC50 (LNCaP clone FGC, 96 h): 3430 nM | IC50 (LP-1): 7620 nM | IC50 (LS123 cells, 96 h): 12000 nM | IC50 (LS 180): 6270 nM | IC50 (LS411N): 15100 nM | IC50 (LS513 cells, 96 h): 2810 nM | IC50 (LS1034 cells, 96 h): 6520 nM | IC50 (Li-7): 630 nM | IC50 (LoVo): 8270 nM | IC50 (M059K cells, 96 h): 2660 nM | IC50 (MC/CAR cells, 96 h): 3150 nM | IC50 (MCF7): 11800 nM | IC50 (MDA-MB-231): 23000 nM | IC50 (MDA-MB-415): 37900 nM | IC50 (MDA-MB-436, 96 h): 500 nM | IC50 (MDA-MB-453): 4860 nM | IC50 (MDA-MB-468 cells, 96 h): 270 nM | IC50 (ME-180 cells, 96 h): 840 nM | IC50 (MEG-01): 1900 nM | IC50 (MES-SA cells, 96 h): 660 nM | IC50 (MES-SA/DX5 cells, 96 h): 2770 nM | IC50 (MFE-296 cells, 96 h): 3310 nM | % inhibition at top conc. (MHCC97-H): 83.30% | IC50 (MHCC97-H): 7890 nM | IC50 (MIA PaCa-2): 2740 nM | IC50 (MKN1 cells, 96 h): 1460 nM | IC50 (MKN45, 96 h): 5470 nM | % inhibition at top conc. (MKN74 cells, 96 h): 84.20% | IC50 (MKN74 cells, 96 h): 11200 nM | IC50 (ML-2): 1210 nM | IC50 (MM.1R): 810 nM | IC50 (MM.1S): 1020 nM | IC50 (MOLM-13 cells, 96 h): 780 nM | IC50 (MOLM-16 cells, 96 h): 870 nM | IC50 (MOLP8 cells, 96 h): 1750 nM | IC50 (MS751 cells, 96 h): 4610 nM
